Read-outs that look alike come from different tables or passages of the source. Where a SMILES comes first, the peptide text is derived from it. [ ]: non-standard residue; d: D form. ξ: configuration not given here. Phe(4-NO2) = N[C@@H](Cc1ccc([N+](=O)[O-])cc1)C(=O)O; ξAla(4-thiazolyl) = NC(Cc1cscn1)C(=O)O; pS = N[C@@H](COP(=O)(O)O)C(=O)O; β3hS = N[C@@H](CO)CC(=O)O; Nva = CCC[C@H](N)C(=O)O; ξβ3hS = NC(CO)CC(=O)O; βAla = NCCC(=O)O
Target: T1, 14-3-3γ (Homo sapiens, UniProt P61981)
T1 construct: made in house; host or cells: E. coli NiCo21 (DE3)
T1 sequence (P61981 1-247): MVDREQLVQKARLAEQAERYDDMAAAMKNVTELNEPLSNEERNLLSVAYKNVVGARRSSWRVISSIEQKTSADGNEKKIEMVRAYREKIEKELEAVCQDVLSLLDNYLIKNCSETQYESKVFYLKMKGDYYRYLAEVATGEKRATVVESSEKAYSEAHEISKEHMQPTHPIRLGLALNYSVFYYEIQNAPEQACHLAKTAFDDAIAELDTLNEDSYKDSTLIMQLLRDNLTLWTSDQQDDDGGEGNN
Test: Isothermal titration calorimetry (ITC) of 14-3-3 binding to peptide
Conditions: for ΔG / Kd / ΔH / -TΔS / ΔH (ITC) / -TΔS (ITC) / ΔG (ITC) / KD (ITC): 25 °C; for Kd: Table S6 (unit as in Table S5)
Protocol: 14-3-3γ protein expression (FP/ITC experiments)
A pPROEX HTb expression vector encoding the human 14-3-3 protein gamma (14-3-3γ) with an N-terminal his6-tag was transformed by heat shock into NiCo21 (DE3) competent cells. Single colonies were cultured in 50 mL LB medium (100 µg/mL ampicillin). After overnight incubation at 37 °C, cultures were transferred to 2 L TB media (100 µg/mL ampicillin, 1 mM MgCl2) and incubated at 37 °C until an OD600 nm of 0.8-1.2 was reached. Protein expression was then induced with 0.4 mM isopropyl-β-d-thiogalactoside (IPTG), and cultures were incubated overnight at 18 °C. Cells were harvested by centrifugation (8600 rpm, 20 minutes, 4 °C) and resuspended in lysis buffer (50 mM Hepes, pH 8.0, 300 mM NaCl, 12.5 mM imidazole, 5 mM MgCl2, 2 mM βME) containing cOmplete™ EDTA-free Protease Inhibitor Cocktail tablets (1 tablet/100 ml lysate) and benzonase (1 µl/100 ml). After lysis using a C3 Emulsiflex-C3 homogenizer (Avestin), the cell lysate was cleared by centrifugation (20000 rpm, 30 minutes, 4 °C) and purified using Ni2+-affinity chromatography (Ni-NTA superflow cartridges, Qiagen).
Typically two 5 mL columns (flow 5 mL/min) were used for a 2 L culture in which the lysate was loaded on the column washed with 10 CV wash buffer (50 mM Hepes, pH 8.0, 300 mM NaCl, 25 mM imidazole, 2 mM βME) and eluted in several fractions (2-4 CV) of elution buffer (50 mM Hepes, pH 8.0, 300 mM NaCl, 250 mM imidazole, 2 mM βME). Fractions containing the 14-3-3 protein were combined and dialyzed into 25 mM HEPES pH 8.0, 100 mM NaCl, 10 mM MgCl2, 500 µM TCEP. […]
The peptides 1 and 2a-d were synthesized on 50 µmol scale on a Rink amide MBHA resin (Novabiochem, 0.52 mmol/g loading) using an automated Intavis MultiPep RSi peptide synthesizer.
Deprotection was performed twice per cycle with 20% v/v piperidine in DMF for 8 minutes. Fmoc-protected amino acids were mixed in 5 equivalents of HBTU and 9 equivalents of DIPEA in DMF, and coupled to the resin. With the exception of phosphoserine, which was coupled once for 60 minutes, all amino acids were coupled to the resin twice for 30 minutes. Capping of unreacted amino acids was performed with a mixture of acetic anhydride/pyridine/DMF (1:1:3) for 5 minutes. βAla was incorporated as a spacer between the sequence and Lys(Alloc), to which a FITC fluorophore will be coupled for fluorescence anisotropy studies.
The peptides 1 and 2e-i were synthesized manually on a 50 µmol scale using Rink amide MBHA resin (Novabiochem, 0.52 mmol/g loading) via Fmoc based solid phase peptide synthesis. […]
(lex: 485 ± 20 nm; lem: 535 ± 25 nm; mirror: Dichroic 510; flashes: 20; integration time: 50 ms; settle time:
0 ms; gain: optimal; and Z-position: calculated from well). […]
Data was obtained and averaged based on two
To determine the cooperativity parameters from the 2D-titration of 14-3-3/ChREBP/2d (as described above) we have used the general framework for straightforward model construction of multi-component thermodynamic equilibrium systems as described by Geertjens et al. (2021).10 This general platform generates a model to describe multi-component equilibrium systems when given a system description.
In our case we gave the following system description: […]
α (with 95% confidence interval) and the error-landscape of the determine parameters.
Fluorescence anisotropy (FA) – Selectivity study: Peptides representing 14-3-3 binding partners (including ChREBP) were titrated in a 2-fold dilution series (starting at 100 µM) to 20 nM of fluorescein-labeled peptide 2d in presence and absence of, respectively, 2 µM 14-3-3γ in FA buffer (10 mM HEPES pH 7.4, 150 mM NaCl, 0.1% (v/v) Tween20, 0.1% (w/v) BSA). Dilution series were made in a polystyrene (non-binding) low-volume Corning Black Round Bottom 384-well plates (Corning 4514 or 4511).
Measurements were performed directly after plate preparation, using a Tecan Infinite F500 plate reader at room temperature (lex: 485 ± 20 nm; lem: 535 ± 25 nm; mirror: Dichroic 510; flashes: 20; integration […]

[1] = Table S5, ΔG minus ΔG of peptide 1, ITC, first unlabelled line (replicate 1)
[2] = Table S5, ΔG minus ΔG of peptide 1, ITC, second unlabelled line (replicate 2)
[3] = Table S5, ΔG of peptide minus ΔG of peptide 1, ITC, mean of n = 2
[4] = ITC, average of two runs, read-out: Kd
[5] = Table S6 (unit given in Fig. 4 legend), ITC, average of two runs
[6] = Table S6, ITC, average of two runs

| SMILES | ΔG (Table S5, ITC, mean of n = 2) [kcal/mol] | ΔG (Table S5, ITC, replicate 1) [kcal/mol] | ΔG (Table S5, ITC, replicate 2) [kcal/mol] | ΔΔG to 1 [1] [kcal/mol] | ΔΔG to 1 [2] [kcal/mol] | ΔΔG to 1 [3] [kcal/mol] | Kd [4] [nM] | Kd (ITC, run 1) | Kd (ITC, run 2) | ΔH [5] | -TΔS [6] | ΔG [6] | -TΔS (Table S6, ITC, run 1) | ΔG (Table S6, ITC, run 1) | ΔH (Table S6, ITC, run 1) | -TΔS (Table S6, ITC, run 2) | ΔG (Table S6, ITC, run 2) | ΔH (Table S6, ITC, run 2) | also measured |
| --- | --- | --- | --- | --- | --- | --- | --- | --- | --- | --- | --- | --- | --- | --- | --- | --- | --- | --- | --- |
| CCC[C@H](NC(=O)[C@H](N)CCCCN)C(=O)N[C@@H](Cc1ccc([N+](=O)[O-])cc1)C(=O)NC(Cc1cscn1)C(=O)N[C@@H](COP(=O)(O)O)C(=O)N[C@@H](Cc1ccc([N+](=O)[O-])cc1)C(=O)N[C@@H](CO)CC(=O)NCCC(=O)N[C@@H](Cc1ccc(O)cc1)C(=O)N[C@@H](CCCCN)C(N)=O (stereo partly drawn) [5a] (H-[dK][Nva][Phe(4-NO2)][ξAla(4-thiazolyl)][pS][Phe(4-NO2)][β3hS][βAla]YK-NH2; N-terminus and C-terminus assumed) | -7.8 | -7.9 | -7.6 | 2.1 | 2.4 | 2.2 | 2060 | 1,55E-06 M | 2,57E-06 M | -5,21 kcal mol^-1 | -2,57 kcal mol^-1 | -7,78 kcal mol^-1 | -1,834 kcal mol^-1 | -7,925 kcal mol^-1 | -6,091 kcal mol^-1 | -3,299 kcal mol^-1 | -7,626 kcal mol^-1 | -4,328 kcal mol^-1 | – |
| CCC[C@H](NC(=O)[C@H](N)CCCCN)C(=O)N[C@@H](Cc1ccc([N+](=O)[O-])cc1)C(=O)NC(Cc1cscn1)C(=O)N[C@@H](COP(=O)(O)O)C(=O)N[C@@H](Cc1ccc([N+](=O)[O-])cc1)C(=O)N[C@@H](CO)CC(=O)NCCC(=O)N[C@@H](Cc1ccccc1)C(=O)N[C@@H](CCCCN)C(N)=O (stereo partly drawn) [5b] (H-[dK][Nva][Phe(4-NO2)][ξAla(4-thiazolyl)][pS][Phe(4-NO2)][β3hS][βAla]FK-NH2; N-terminus and C-terminus assumed) | -7.9 | -7.9 | -7.8 | 2.1 | 2.2 | 2.1 | 1450 | 1,06E-06 M | 1,85E-06 M | -4,72 kcal mol^-1 | -3,16 kcal mol^-1 | -7,88 kcal mol^-1 | -3,227 kcal mol^-1 | -7,943 kcal mol^-1 | -4,716 kcal mol^-1 | -3,096 kcal mol^-1 | -7,821 kcal mol^-1 | -4,725 kcal mol^-1 | increase of enthalpy (ΔH) on removal of the nitro group, relative to peptide 1 (ITC, n = 2, Fig. 4c): ~6 kcal/mol |
| CCC[C@H](NC(=O)[C@H](N)CCCCN)C(=O)N[C@@H](Cc1ccc([N+](=O)[O-])cc1)C(=O)NC(Cc1cscn1)C(=O)N[C@@H](COP(=O)(O)O)C(=O)N[C@@H](Cc1ccc([N+](=O)[O-])cc1)C(=O)N[C@@H](CO)CC(=O)NCCC(=O)N[C@@H](C)C(=O)N[C@@H](CCCCN)C(N)=O (stereo partly drawn) [5c] (H-[dK][Nva][Phe(4-NO2)][ξAla(4-thiazolyl)][pS][Phe(4-NO2)][β3hS][βAla]AK-NH2; N-terminus and C-terminus assumed) | -7.4 | -7.4 | -7.3 | 2.6 | 2.7 | 2.6 | 3910 | 3,48E-06 M | 4,33E-06 M | -2,89 kcal mol^-1 | -4,49 kcal mol^-1 | -7,38 kcal mol^-1 | -5,204 kcal mol^-1 | -7,446 kcal mol^-1 | -2,242 kcal mol^-1 | -3,779 kcal mol^-1 | -7,317 kcal mol^-1 | -3,539 kcal mol^-1 | – |
| CCC[C@H](NC(=O)[C@H](N)CCCCN)C(=O)N[C@@H](Cc1ccc([N+](=O)[O-])cc1)C(=O)NC(Cc1cscn1)C(=O)N[C@@H](COP(=O)(O)O)C(=O)N[C@@H](Cc1ccc([N+](=O)[O-])cc1)C(=O)NC(CO)CC(=O)NCCC(=O)N[C@@H](Cc1ccc([N+](=O)[O-])cc1)C(=O)N[C@@H](CCCCN)C(N)=O (stereo partly drawn) [compound 1] (H-[dK][Nva][Phe(4-NO2)][ξAla(4-thiazolyl)][pS][Phe(4-NO2)][ξβ3hS][βAla][Phe(4-NO2)]K-NH2) | -10.0 | -10.0 | -10.0 | – | – | – | – | – | – | -10,71 kcal mol^-1 | 0,68 kcal mol^-1 | -10,03 kcal mol^-1 | 0,933 kcal mol^-1 | -10,03 kcal mol^-1 | -10,96 kcal mol^-1 | 0,426 kcal mol^-1 | -10,02 kcal mol^-1 | -10,45 kcal mol^-1 | free binding energy ΔG (ITC) (ITC): -10.0 kcal/mol; ΔH (ITC) (Table S1 (unit given in Fig. 4 legend), ITC, mean of n = 2): -10.7 kcal/mol; -TΔS (ITC) (Table S1, ITC, mean of n = 2): 0.7 kcal/mol; ΔG (ITC) (Table S1, ITC, mean of n = 2): -10.0 kcal/mol; -TΔS (ITC) (Table S1, ITC, replicate 1): 0.9 kcal/mol; KD (ITC) (Table S1, ITC, replicate 1): 44.7 nM; ΔG (ITC) (Table S1, ITC, replicate 1): -10.0 kcal/mol; ΔH (ITC) (Table S1, ITC, replicate 1): -11.0 kcal/mol; -TΔS (ITC) (Table S1, ITC, replicate 2): 0.4 kcal/mol; KD (ITC) (Table S1, ITC, replicate 2): 45.3 nM; ΔG (ITC) (Table S1, ITC, replicate 2): -10.0 kcal/mol; ΔH (ITC) (Table S1, ITC, replicate 2): -10.5 kcal/mol |
